From patent US10106818B2, “Dual-color HIV reporter system for the detection of latently-infected cells” (priority 2013, dated 2018)

What was measured:
[1] = tested on: latent HIV in 89mASG- and R7GEmC-infected single-positive Jurkat T cells; assay: Reactivation of latent HIV in sorted single-positive (latent) Jurkat T cells, FACS; format: cell-based, HIV-1; settings: for reactivation activity (percent population in the productive gate): 89mASG and R7GEmC single-positive latent populations, 30, 10 and 3 μM; for expression of HIV promoter-dependent reporter: 89mASG and R7GEmC latent Jurkat T cells, 10 ng/ml TNFα, 5 μM prostratin or 2.5 μM SAHA alone
[2] = tested on: latent HIV in sorted latent-cell populations (GFP-only-positive 89mASG Jurkat T cells); assay: Co-treatment with low levels of SAHA, prostratin or TNFα, FACS; format: cell-based, HIV-1; settings: 24 h; for effect on HIV latency in combination with SAHA: 10 μM with low SAHA (0.5 μM); for interaction with prostratin: with low prostratin (0.5 μM)
From the text: Thus, it might be of interest to identify compounds that can potentiate HIV reactivation by SAHA or prostratin or TNFα.
(§1) Sorted 89mASG-infected, GFP-only-positive Jurkat cells were used to test the Tocriscreen drug library for latent HIV reactivation (see Methods). (a) Dot plot showing quantification of total blue area (Hoechst 33342 signal, total cell) against total red area (mApple signal, reactivated HIV). Red dots indicate the position of untreated wells (Negative controls); the shaded area indicates the median±2SD of the red/blue area ratio for negative control wells. Green dots indicate positive control wells, treated with 10 ng/ml TNFα, 5 μM prostratin or 2.5 μM SAHA and their combinations. […] Representative FACS plots of sorted single-positive Jurkat T cells for both viruses. The productive gate contains the reactivated cells. […] (c,d) Histogram plot of percent population in the productive gate (grey) for each treatment and percentage of cells in the live gate (light blue) for sorted single-positive Jurkat T cells for 89mASG (c) and R7GEmC (d) reporters. Data shown as mean±SD for three different treatments. For each compound, a grey triangle between the histograms indicates decreasing drug concentration (30, 10 and 3 μM). […] (e) FACS analysis of drug treatments combined with 0.5 μM SAHA, 0.5 μM prostratin and 0.5 ng/ml TNFα. Representative FACS plots of sorted GFP-only-positive Jurkat T cells for 89mASG treated with DMSO (control), SAHA (0.5 μM) alone or with terreic acid (10 μM) and dilazep (30 μM). (f) Histogram plot of percent population of the sorted cells in the productive gate for each treatment at indicated concentrations (μM).

[3] = tested on: latent HIV in sorted GFP-only 89mASG-infected Jurkat cells; assay: High-throughput imaging screen for latent HIV reactivation (Tocriscreen library); format: cell-based, HIV-1; settings: 24 hr; for red signal (mApple, reactivated virus) versus negative controls: positive control wells, 10 ng/ml TNFα, 5 μM prostratin or 2.5 μM SAHA and combinations; for reactivation of latent HIV in the screen: 30 μM, total red area higher than median+2 SD of negative control wells
From the text: as §1

[4] = tested on: latent provirus in mCherry-only R7GEmC-infected primary CD4+ T cells; assay: Reactivation of sorted mCherry-only (latent) primary CD4+ T cells infected with R7GEmC; format: cell-based, HIV-1; settings: for response of mCherry-only positive cells to treatment: three pooled donors, 1 μM prostratin, 1 μM SAHA
Procedure: HEK293T, Jurkat, A301 and SupT1 cell lines were obtained from ATCC. Suspension cells were cultured in RPMI 1640 supplemented with 10% FBS, 100 U/ml penicillin, […] streptomycin and 2 mM L-glutamine (PSG) (37° C., 5% CO2). Peripheral blood from healthy human donors was obtained from the Stanford Blood Center and processed the day of collection. CD4^+ T cells were isolated with RosetteSep Human CD4^+ T-Cell Enrichment Cocktail (Stem Cell Technologies) and cultured in human cell medium (HCM, RPMI, 10% human AB pooled serum, PSG). Resting CD4^+ T cells were activated in U-bottom 96-well TC plates with 25 μl human anti-CD3 and anti-CD28-coated dynabeads/10^6 cells (48 h). Dynabeads were removed by magnetic separation and cells seeded in HCM with 30 IU/ml rhIL-2. Cell lines and activated CD4^+ cells were infected by spinoculation (Lassen et al., PLoS One. 2012; 7(1):e30176, which is hereby incorporated by reference in its entirety) with a virus amount equivalent to 20 ng p24 or as indicated. Viral infection was assessed by fluorescence activated cell sorting (FACS) analysis after 72 h. At 5 days post-infection, cells were sorted to separate negative, single- or double-positive cells. Sorted cell lines were treated after re-expansion for 5-15 days. Cells were seeded in 96-well U plates and treated for 24 h before analysis. […]
The extent to which mCherry-only-positive populations could be reactivated by further stimulation was next evaluated. […]
(a) FACS analysis of activated CD4^+ T cells from two human donors (#1, #2) infected with R7GEmC at indicated virus amounts. (b) Fluorescence microscopy image of infected CD4^+ T cells showing mCherry-positive (latent, red) and GFP-positive (active, green) cells. (c) qPCR quantification of proviral DNA in the sorted populations, using primer-probe combinations for the HIV-1 gag gene and the RNAseP gene for normalization. […] (d) Western blot quantification of HIV gag and cell α-actin in sorted CD4^+ T cell populations from pooled donors. […]

[5] = tested on: HIV RNA expression; settings: recent study; cited from earlier work
[6] = tested on: R7GEmC infection of activated CD4+ T cells; assay: Infection of activated CD4+ T cells with R7GEmC in the presence of integrase inhibitor (pre-integration latency); format: cell-based, HIV-1; settings: 30 μM Raltegravir; after 3 days
From the text: HIV latency in vivo is reported to result, in part, from pre-integration latency, whereby unintegrated proviral DNA (after full retrotranscription) is maintained in a stable cytoplasmic form in a quiescent cell, and can respond to cell activation by de novo integration and productive infection. To rule out pre-integration latency, activated CD4^+ T cells were infected with R7GEmC in the presence of the HIV integrase inhibitor raltegravir (FIG. 6A).
(a) FACS analysis of activated CD4^+ T cells from two human donors (#1, #2) infected with R7GEMC alone or with 30 μM Raltegravir (RALTE 30). (b) Analysis of sorted CD4^+ T-cell populations from donors 1 and 2, after 48 h with anti-CD3/CD28-coated Dynabeads (αCD3/28), alone, with 30 μM Raltegravir, or untreated (CTR).

COc1cc(C(=O)OCCCN2CCCN(CCCOC(=O)c3cc(OC)c(OC)c(OC)c3)CC2)cc(OC)c1OC [dilazep]
reactivation activity (percent population in the productive gate) [1]: slight but significant reactivation activity | effect on HIV latency in combination with SAHA [2]: strongly enhanced the effect of low SAHA concentrations | interaction with prostratin [2]: synergistic with prostratin

TNF-α
expression of HIV promoter-dependent reporter [1]: increased expression of HIV promoter-dependent reporter | red signal (mApple, reactivated virus) versus negative controls [3]: notably higher red signal

O=C1C(SCCO)=C(SCCO)C(=O)c2ccccc21 [NSC 95397]
reactivation activity (percent population in the productive gate) [1]: clear artifacts or false positives

O=C(CCCCCCC(=O)Nc1ccccc1)NO [SAHA, suberoylanilide hydroxamic acid]
expression of HIV promoter-dependent reporter [1]: increased expression of HIV promoter-dependent reporter | response of mCherry-only positive cells to treatment [4]: A subset of less-bright mCherry-only positive cells also responded | reactivation of HIV RNA expression in patients [5]: can reactivate HIV RNA expression in a subset of patients | red signal (mApple, reactivated virus) versus negative controls [3]: notably higher red signal

Cc1nnc(C(=O)NC(C)(C)c2nc(C(=O)NCc3ccc(F)cc3)c(O)c(=O)n2C)o1 [raltegravir]
effect on viral reactivation in the mCherry-only-positive population ([4]; 30 μM Raltegravir with anti-CD3/CD28-coated Dynabeads, 48 h): did not reduce viral reactivation | integration-independent expression of the fluorescent proteins [6]: no integration-independent expression of the fluorescent proteins

CC1=C(O)C(=O)[C@@H]2O[C@@H]2C1=O [terreic acid, (−)-terreic acid]
reactivation activity (percent population in the productive gate) [1]: slight but significant reactivation activity | effect on HIV latency in combination with SAHA [2]: strongly enhanced the effect of low SAHA concentrations | interaction with TNFα ([2]; with low TNFα (0.5 ng/ml)): synergistic interaction in most combinations except terreic acid | interaction with prostratin [2]: synergistic with prostratin

O=c1c(-c2ccc(O)cc2)coc2cc(O)cc(O)c12 [genistein]
reactivation of latent HIV in the screen [3]: reactivated latent HIV

CC(=O)O[C@@]12C[C@@H](C)[C@@]3(O)[C@@H](C=C(CO)C[C@]4(O)C(=O)C(C)=C[C@@H]34)[C@@H]1C2(C)C [prostratin, (1aR,1bS,4aR,7aS,7bR,8R,9aS)-4a,7b-dihydroxy-3-(hydroxymethyl)-1,1,6,8-tetramethyl-5-oxo-1,1a,1b,4,4a,5,7a,7b,8,9-decahydro-9aH-cyclopropa[3,4]benzo[1,2-e]azulen-9a-yl]
expression of HIV promoter-dependent reporter [1]: increased expression of HIV promoter-dependent reporter | response of mCherry-only positive cells to treatment [4]: A subset of less-bright mCherry-only positive cells also responded | red signal (mApple, reactivated virus) versus negative controls [3]: notably higher red signal

Oc1ccc(C=Cc2cc(O)cc(O)c2)cc1 [resveratrol]
reactivation of latent HIV in the screen [3]: reactivated latent HIV

N#C/C(=C\c1ccc(O)c(O)c1)C(=O)NCCCc1ccccc1 [AG555, α-Cyano-(3,4-dihydroxy)-N-(3-phenylpropyl)cinnamide]
reactivation activity (percent population in the productive gate) [1]: slight but significant reactivation activity

CN1CCc2cccc3c2[C@H]1Cc1ccc(O)c(O)c1-3 [apomorphin, apomorphine]
reactivation activity (percent population in the productive gate) [1]: distinct effects in the two HIV clones
